Patent US20040176349A1, “Antibacterial composition” (priority 2001, published 2004)

Key:
enterococci = assay: Checkerboard study, synergy summary of Example 2; assay type: cell-based, Enterococcus; conditions: in words
From the text: (§1) The aim of the study was to detect any synergy between PFOB and the other antibiotics. For the purposes of the study, synergy was defined in accordance with the FIC (fractional inhibitory concentration) index, as disclosed by Lorian (1991, In “Antibiotics in Laboratory Medicine” 3rd edition, Eds. Williams & Wilkins; esp. p 434-443). In essence, if the combination of test compounds gives at least a 4-fold reduction in the FIC value for each compound, then a synergy may be considered to exist (i.e. FIC of the combination <0.5=synergy; FIC 0.5-2.0=“indifference”; and FIC >2=antagonism).

Enterococcus strains = assay: MIC against Enterococcus strains, summary of Example 1; assay type: cell-based; conditions: in words
Protocol: (§2) The minimum inhibitory concentration (MIC) of the compounds was determined using the microbroth dilution technique in accordance with NCCLS guidelines, employing Mueller-Hinton broth (National Committee for Clinical Laboratory Standards, NCCLS, 1995 “Methods for dilution antimicrobial susceptibility tests for bacteria that grow aerobically”—approved standard M7-A5).
(§3) The compounds were tested in isolation, at different concentrations.

E. faecalis Phillips = assay: MIC, microbroth dilution (NCCLS), Table 1; assay type: cell-based; conditions: Enterococcus faecalis
Protocol: as §2, §3

E. faecalis NCTC 5957 = assay: MIC, microbroth dilution (NCCLS), Table 1; assay type: cell-based; conditions: Enterococcus faecalis, NCTC5957
Protocol: as §2, §3

E. faecalis SFZ = assay: MIC, microbroth dilution (NCCLS), Table 1; assay type: cell-based; conditions: Enterococcus faecalis
Protocol: as §2, §3

E. faecium NCTC 7171 = assay: MIC, microbroth dilution (NCCLS), Table 1; assay type: cell-based; conditions: Enterococcus faecium, NCTC7171
Protocol: as §2, §3

E. faecalis 24592 = assay: MIC, microbroth dilution (NCCLS), Table 1; assay type: cell-based; conditions: Enterococcus faecalis, 24592
Protocol: as §2, §3

E. hirae ATCC 10541 = assay: MIC, microbroth dilution (NCCLS), Table 1; assay type: cell-based; conditions: Enterococcus hirae, ATCC10541
Protocol: as §2, §3

VRE 300 1562 = assay: MIC, microbroth dilution (NCCLS), Table 1; assay type: cell-based, Enterococcus; conditions: Enterococcus, VRE
Protocol: as §2, §3

VRE 1662 = assay: MIC, microbroth dilution (NCCLS), Table 1; assay type: cell-based, Enterococcus; conditions: Enterococcus, VRE
Protocol: as §2, §3

VRE 300 1590 = assay: MIC, microbroth dilution (NCCLS), Table 1; assay type: cell-based, Enterococcus; conditions: Enterococcus, VRE
Protocol: as §2, §3

VRE 300 2043 = assay: MIC, microbroth dilution (NCCLS), Table 1; assay type: cell-based, Enterococcus; conditions: Enterococcus, VRE
Protocol: as §2, §3

E. faecalis ATCC 29212 = assay: Checkerboard microdilution MIC with PFOB, Table 2; assay type: cell-based
From the text: as §1
(§4) In Table 2, results in the checkerboard indicating synergy are hatched, and specific optimum synergistic combinations are boxed.

E. faecalis 5659 (vanA) = assay: Checkerboard microdilution MIC with PFOB, Table 2; assay type: cell-based
From the text: as §1, §4

E.faecalis 78097 (van B) = assay: Checkerboard microdilution MIC with PFOB, Table 2; assay type: cell-based
From the text: as §1, §4

E. faecalis ATCC 10541 = assay: Checkerboard microdilution MIC with PFOB, Table 2; assay type: cell-based
From the text: The aim of the study was to detect any synergy between PFOB and the other antibiotics. For the purposes of the study, synergy was defined in accordance with the FIC (fractional inhibitory concentration) index, as disclosed by Lorian (1991, In “Antibiotics in Laboratory Medicine” 3rd edition, Eds. Williams & Wilkins; esp. p 434-443).

[1] = Enterococcus faecalis, read-out: MIC (alone) of Partner

With `O=C(O)[C@H]1/C(=C/CO)O[C@@H]2CC(=O)N21` [CA, clavulanic acid] the “synergy with PFOB” value (enterococci) was “No synergy”, the “effect on the MIC of CAZ” value (Enterococcus strains; clavulanic acid added at 4 mg/L) was “no significant effect” and the “activity in isolation against the Enterococcus strains tested” value (Enterococcus strains; compound alone, all strains of Table 1) was “inactive”. The MIC (E. faecalis Phillips) was greater than 128 µg/mL, the MIC (E. faecalis NCTC 5957) was greater than 128 µg/mL and the MIC (E. faecalis SFZ) was greater than 128 µg/mL. It also gave an MIC (E. faecium NCTC 7171) greater than 128 µg/mL, an MIC (E. faecalis 24592) greater than 128 µg/mL and an MIC (E. hirae ATCC 10541) greater than 128 µg/mL. For the same compound, the MIC (VRE 300 1562) was greater than 128 µg/mL, the MIC (VRE 1662) was greater than 128 µg/mL and the MIC (VRE 300 1590) was greater than 128 µg/mL. The MIC (VRE 300 2043) was greater than 128 µg/mL, the “MIC of partner antibiotic in the presence of PFOB at 0.5 mg/L” value (shortened to “MIC of partner antibiotic … at 0.5 mg/L”) (E. faecalis ATCC 29212; E. faecalis ATCC 29212, PFOB 0.5 mg/L) was greater than 64 µg/mL and the “MIC of partner antibiotic in the presence of PFOB at 1 mg/L” value (from here on “MIC of partner antibiotic … at 1 mg/L”) (E. faecalis ATCC 29212; E. faecalis ATCC 29212, PFOB 1 mg/L) was greater than 64 µg/mL. For the same compound, the “MIC of partner antibiotic in the presence of PFOB at 2 mg/L” value (shortened to “MIC of partner antibiotic … at 2 mg/L”) (E. faecalis ATCC 29212; E. faecalis ATCC 29212, PFOB 2 mg/L) was greater than 64 µg/mL, the “MIC of partner antibiotic in the presence of PFOB at 4 mg/L” value (“MIC of partner antibiotic … at 4 mg/L” below) (E. faecalis ATCC 29212; E. faecalis ATCC 29212, PFOB 4 mg/L) was greater than 64 µg/mL and the “MIC of partner antibiotic in the presence of PFOB at 8 mg/L” value (from here on “MIC of partner antibiotic … at 8 mg/L”) (E. faecalis ATCC 29212; E. faecalis ATCC 29212, PFOB 8 mg/L) was greater than 64 µg/mL. For the same compound, the “MIC of partner antibiotic in the presence of PFOB at 16 mg/L” value (shortened to “MIC of partner antibiotic … at 16 mg/L”) (E. faecalis ATCC 29212; E. faecalis ATCC 29212, PFOB 16 mg/L) was greater than 64 µg/mL, the “MIC of partner antibiotic in the presence of PFOB at 32 mg/L” value (“MIC of partner antibiotic … at 32 mg/L” for short) (E. faecalis ATCC 29212; E. faecalis ATCC 29212, PFOB 32 mg/L) was greater than 64 µg/mL and the MIC (E. faecalis ATCC 29212; Enterococcus faecalis, ATCC29212, read-out: MIC (alone) of Partner) was greater than 64 µg/mL. The “MIC of partner antibiotic … at 0.5 mg/L” value (E. faecalis 5659 (vanA); E. faecalis 5659 (vanA), PFOB 0.5 mg/L) was greater than 64 µg/mL, the “MIC of partner antibiotic … at 1 mg/L” value (E. faecalis 5659 (vanA); E. faecalis 5659 (vanA), PFOB 1 mg/L) was greater than 64 µg/mL and the “MIC of partner antibiotic … at 2 mg/L” value (E. faecalis 5659 (vanA); E. faecalis 5659 (vanA), PFOB 2 mg/L) was greater than 64 µg/mL. For the same compound, the “MIC of partner antibiotic … at 4 mg/L” value (E. faecalis 5659 (vanA); E. faecalis 5659 (vanA), PFOB 4 mg/L) was greater than 64 µg/mL, the “MIC of partner antibiotic … at 8 mg/L” value (E. faecalis 5659 (vanA); E. faecalis 5659 (vanA), PFOB 8 mg/L) was greater than 64 µg/mL and the “MIC of partner antibiotic … at 16 mg/L” value (E. faecalis 5659 (vanA); E. faecalis 5659 (vanA), PFOB 16 mg/L) was greater than 64 µg/mL. For the same compound, the “MIC of partner antibiotic … at 32 mg/L” value (E. faecalis 5659 (vanA); E. faecalis 5659 (vanA), PFOB 32 mg/L) was greater than 64 µg/mL, the MIC (E. faecalis 5659 (vanA); [1]) was greater than 64 µg/mL and the “MIC of partner antibiotic … at 0.5 mg/L” value (E.faecalis 78097 (van B); E.faecalis 78097 (van B), PFOB 0.5 mg/L) was greater than 64 µg/mL. The “MIC of partner antibiotic … at 1 mg/L” value (E.faecalis 78097 (van B); E.faecalis 78097 (van B), PFOB 1 mg/L) was greater than 64 µg/mL, the “MIC of partner antibiotic … at 2 mg/L” value (E.faecalis 78097 (van B); E.faecalis 78097 (van B), PFOB 2 mg/L) was greater than 64 µg/mL and the “MIC of partner antibiotic … at 4 mg/L” value (E.faecalis 78097 (van B); E.faecalis 78097 (van B), PFOB 4 mg/L) was greater than 64 µg/mL. For the same compound, the “MIC of partner antibiotic … at 8 mg/L” value (E.faecalis 78097 (van B); E.faecalis 78097 (van B), PFOB 8 mg/L) was greater than 64 µg/mL, the “MIC of partner antibiotic … at 16 mg/L” value (E.faecalis 78097 (van B); E.faecalis 78097 (van B), PFOB 16 mg/L) was greater than 64 µg/mL and the “MIC of partner antibiotic … at 32 mg/L” value (E.faecalis 78097 (van B); E.faecalis 78097 (van B), PFOB 32 mg/L) was greater than 64 µg/mL. For the same compound, the MIC (E.faecalis 78097 (van B); [1]) was greater than 64 µg/mL, the “MIC of partner antibiotic … at 0.5 mg/L” value (E. faecalis ATCC 10541; E. faecalis ATCC 10541, PFOB 0.5 mg/L) was greater than 64 µg/mL and the “MIC of partner antibiotic … at 1 mg/L” value (E. faecalis ATCC 10541; E. faecalis ATCC 10541, PFOB 1 mg/L) was greater than 64 µg/mL. The “MIC of partner antibiotic … at 2 mg/L” value (E. faecalis ATCC 10541; E. faecalis ATCC 10541, PFOB 2 mg/L) was greater than 64 µg/mL, the “MIC of partner antibiotic … at 4 mg/L” value (E. faecalis ATCC 10541; E. faecalis ATCC 10541, PFOB 4 mg/L) was greater than 64 µg/mL and the “MIC of partner antibiotic … at 8 mg/L” value (E. faecalis ATCC 10541; E. faecalis ATCC 10541, PFOB 8 mg/L) was greater than 64 µg/mL. For the same compound, the “MIC of partner antibiotic … at 16 mg/L” value (E. faecalis ATCC 10541; E. faecalis ATCC 10541, PFOB 16 mg/L) was greater than 64 µg/mL, the “MIC of partner antibiotic … at 32 mg/L” value (E. faecalis ATCC 10541; E. faecalis ATCC 10541, PFOB 32 mg/L) was greater than 64 µg/mL and the MIC (E. faecalis ATCC 10541; Enterococcus faecalis, ATCC10541, read-out: MIC (alone) of Partner) was greater than 64 µg/mL.
